Patent US20230141569A1, “FLUORESCENT DYE, AND PREPARATION METHOD AND USES THEREOF” (FLUORESCENCE DIAGNOSIS (SHANGHAI) BIOTECH COMPANY LTD., priority 2020, published 2023)

Legend:
[1] = test system: mRNA of ACTB; assay: Flow detection of mRNA labeling in 293T/17 cells (Test Example 5); type: cell-based; conditions: 0.2 μM in PBS, 5 minutes incubation; for background fluorescence in flow detection: 293T/17 control cells
Source text: FIGS. 21A and 21B are a flow detection diagram for molecular rotors IV-21 and IV-41 for labeling mRNA.

[2] = Viscosity response: fluorescence in glycerin vs methanol (Test Example 1); type: physicochemical; conditions: final concentration 1×10^−5 M; for Glycerin/Methanol Fluorescence Intensity Ratio: excited at maximum excitation wavelength of each dye; for Maximum Excitation Wavelength (nm): glycerin and methanol
[3] = test system: RNA aptamer; assay: Optical properties after binding to RNA aptamer (Test Example 4); type: biochemical; conditions: for Em/nm / Ex/nm / ε / QY (−): after binding to RNA aptamer; for QY (−): relative method with Rhodamine 6G as the standard; for compound fluorescence after binding to RNA aptamer: excited at a suitable wavelength
[4] = Fluorescence emission at different viscosity conditions, diethanol-glycerol mixed solution (Test Example 2); type: physicochemical; conditions: 1×10^−5 M, excited at 480 nm
[5] = test system: RNA aptamer; assay: Labeling intracellular RNA aptamer in cells (Test Example 4, FIG. 20A/20B); type: cell-based; conditions: for fluorescence of cells expressing the RNA aptamer: FIG. 20A; for fluorescence of cells not expressing the RNA aptamer: FIG. 20B
Source text: FIGS. 20A and 20B are the application of molecular rotors IV-1, IV-2, IV-3, IV-4, IV-5, IV-6, IV-17, IV-18, IV-19, IV-20, IV-21, IV-22 in labeling intracellular RNA aptamer, wherein FIG. 20A are cells expressing the target RNA aptamer, and FIG. 20B are cells not expressing the target RNA aptamer;

Row | SMILES | background fluorescence in flow detection [1] | Glycerin/Methanol Fluorescence Intensity Ratio [2] | Maximum Excitation Wavelength (nm) [2] | Em/nm [3] | Ex/nm [3] | ε [3] | QY (−) [3] | compound fluorescence after binding to RNA aptamer [3] | fluorescence intensity at different viscosity conditions [4] | fluorescence of cells expressing the RNA aptamer [5] | fluorescence of cells not expressing the RNA aptamer [5] | labeling of mRNA of ACTB in cell lines expressing target RNA ([1]; 293T/17, flow detection)
1 | CN1C(=O)/C(=C/c2ccc(N(C)CCO)cc2)N=C1/C=C/c1ccccc1 [IV-41, reference compound] | higher than that of IV-21 |  |  |  |  |  |  |  |  |  |  | 
2 | CN1C(=O)/C(=C/c2cc(F)c(O)c(F)c2)N=C1/C=C/c1cccc(C#N)c1 [IV-2] |  | 687 | 595 nm | 595 nm | 492 nm | 25000 M⁻¹ cm⁻¹ | 0.36 | noticeably activated | gradually increasing fluorescence intensity | bright fluorescence | no fluorescence | 
3 | CN1C(=O)/C(=C/c2ccc(N(C)CCO)cc2)N=C1/C=C/c1ccc(C#N)cc1 [IV-21] | no obvious background fluorescence | 655 | 624 nm | 624 nm | 534 nm | 26222 M⁻¹ cm⁻¹ | 0.28 | noticeably activated | gradually increasing fluorescence intensity | bright fluorescence | no fluorescence | could specifically label mRNA of ACTB
4 | CN1C(=O)/C(=C/c2ccc(N(C)CCO)cc2)N=C1/C=C/c1ccc(F)cc1 [IV-22] |  | 689 | 580 nm | 580 nm | 522 nm | 32000 M⁻¹ cm⁻¹ | 0.46 | noticeably activated | gradually increasing fluorescence intensity | bright fluorescence | no fluorescence | 
